Each compound was assayed against RORγt (Homo sapiens (Human), UniProt P51449) (assay: Gal4 ligand binding assay (RORγt Gal fusion luciferase reporter assay in HEK293T cells)). Conditions: RORγt inverse agonists in RORγt Gal fusion assay.
Format: cell-based
Description: The N-terminal DNA binding domains (DBD) of the native RORγ and RORγt receptors have been substituted with that of the yeast GAL4-DBD and stably transfected in HEK293T cells that also stably express luciferase under the regulation by upstream activation sequence of yeast Gal4. These cells constitutively express high level RORγ activity due to binding of endogenous co-factors. Both agonist and inverse agonist activity can be detected. The assay was performed according to kit manufacturer's instructions as follows. 10 mM compound stocks were diluted serially 1:3 with DMSO and further diluted with provided media to generate 10 titration points from 60 μM to 3 nM. These treatment conditions were added to the plates as 2× media in 100 μL volume. Each plate includes a positive control with 10 titration points as well as 6 negative control wells with vehicle only, with final DMSO concentration of 0.2%. RORγ reporter cells were rapidly thawed and added to the plates in 100 μL volume. The plates were incubated for 24 h in a 37° C. humidified 5% CO2 incubator. Media was removed before the addition of room temperature luciferous detection substrate. After 5 minute incubation, relative light units (RLUs) were quantified using a plate reading luminometer. Data was normalized to […] with only 0.2%0DMSO. Before establishing internal controls, ursolic acid was used as control.

RORγt, sequence (P51449 269-508): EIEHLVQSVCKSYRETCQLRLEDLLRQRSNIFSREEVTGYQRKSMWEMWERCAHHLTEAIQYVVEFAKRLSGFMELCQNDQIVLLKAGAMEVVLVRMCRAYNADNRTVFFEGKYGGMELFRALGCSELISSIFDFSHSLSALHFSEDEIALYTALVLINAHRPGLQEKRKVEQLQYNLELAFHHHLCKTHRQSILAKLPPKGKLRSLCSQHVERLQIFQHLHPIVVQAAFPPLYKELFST

SMILES | IC50 [nM]
CCc1c(F)c(CN2CC3(C2)CN(S(C)(=O)=O)C3)cc(F)c1-c1ccc(C(O)(C(F)(F)F)C(F)(F)F)cc1F [Example 70, 2-(2′-ethyl-2,3′,6′-trifluoro-4′-((6-(methylsulfonyl)-2,6-diazaspiro[3.3]heptan-2-yl)methyl)-[1,1′-biphenyl]-4-yl)-1,1,1,3,3,3-hexafluoropropan-2-ol] | < 50
CCc1cc(C(O)(C(F)(F)F)C(F)(F)F)ccc1-c1c(F)cc(CN2CC3(C2)CN(S(C)(=O)=O)C3)c(F)c1C1CC1 [Example 90, 2-(2′-cyclopropyl-2-ethyl-3′,6′-difluoro-4′-((6-(methylsulfonyl)-2,6-diazaspiro[3.3]heptan-2-yl)methyl)-[1,1′-biphenyl]-4-yl)-1,1,1,3,3,3-hexafluoropropan-2-ol] | < 50
CC(C)c1cc(CN2CC3(C2)CN(S(C)(=O)=O)C3)ccc1-c1ccc(C(O)(C(F)(F)F)C(F)(F)F)cc1 [Example 43, 1,1,1,3,3,3-hexafluoro-2-(2′-isopropyl-4′-((6-(methylsulfonyl)-2,6-diazaspiro[3.3]heptan-2-yl)methyl)-[1,1′-biphenyl]-4-yl)propan-2-ol] | < 50
CS(=O)(=O)N1CC2(CN(Cc3cc(F)c(-c4ccc(C(O)(C(F)(F)F)C(F)(F)F)cc4F)c(C4CC4)c3F)C2)C1 [Example 91, 2-(2′-cyclopropyl-2,3′,6′-trifluoro-4′-((6-(methylsulfonyl)-2,6-diazaspiro[3.3]heptan-2-yl)methyl)-[1,1′-biphenyl]-4-yl)-1,1,1,3,3,3-hexafluoropropan-2-ol] | < 50
Cc1cc(CN2CC3(C2)CN(S(C)(=O)=O)C3)ccc1-c1ccc(C(O)(C(F)(F)F)C(F)(F)F)cc1 [Example 50, 1,1,1,3,3,3-hexafluoro-2-(2′-methyl-4′-((6-(methylsulfonyl)-2,6-diazaspiro[3.3]heptan-2-yl)methyl)-[1,1′-biphenyl]-4-yl)propan-2-ol] | 50 to 250
CC(C)c1cc(CN2CC3(C2)CN(S(C)(=O)=O)C3)c(F)cc1-c1ccc(C(O)(C(F)(F)F)C(F)(F)F)cc1 [Example 78, 1,1,1,3,3,3-hexafluoro-2-(5′-fluoro-2′-isopropyl-4′-((6-(methylsulfonyl)-2,6-diazaspiro[3.3]heptan-2-yl)methyl)-[1,1′-biphenyl]-4-yl)propan-2-ol] | < 50
CCc1cc(CN2CC3(CCCN(S(C)(=O)=O)C3)C2)ccc1-c1ccc(C(O)(C(F)(F)F)C(F)(F)F)cc1 [Example 19, 2-(2′-ethyl-4′-((6-(methylsulfonyl)-2,6-diazaspiro[3.5]nonan-2-yl)methyl)-[1,1′-biphenyl]-4-yl)-1,1,1,3,3,3-hexafluoropropan-2-ol] | 50 to 250
CCc1cc(CN2CC3(C2)CN(S(=O)(=O)CC)C3)ccc1-c1ccc(C(O)(C(F)(F)F)C(F)(F)F)cc1 [Example 22, 2-(2′-ethyl-4′-((6-(ethylsulfonyl)-2,6-diazaspiro[3.3]heptan-2-yl)methyl)-[1,1′-biphenyl]-4-yl)-1,1,1,3,3,3-hexafluoropropan-2-ol] | 50 to 250
CS(=O)(=O)N1CC2(CN(Cc3ccc(-c4ccc(C(O)(C(F)(F)F)C(F)(F)F)cc4)cc3O)C2)C1 [Example 61, 4′-(1,1,1,3,3,3-hexafluoro-2-hydroxypropan-2-yl)-4-((6-(methylsulfonyl)-2,6-diazaspiro[3.3]heptan-2-yl)methyl)-[1,1′-biphenyl]-3-ol] | 50 to 250
Cc1cc(C(O)(C(F)(F)F)C(F)(F)F)ccc1-c1ccc(CN2CCC3(C2)CS(=O)(=O)C3)cc1C(C)C [Example 11, 6-((4′-(1,1,1,3,3,3-hexafluoro-2-hydroxypropan-2-yl)-2-isopropyl-2′-methyl-[1,1′-biphenyl]-4-yl)methyl)-2-thia-6-azaspiro[3.4]octane 2,2-dioxide] | < 50
Cc1cc(CN2CC3(CN(Cc4ccncc4)C3)C2)ccc1-c1ccc(C(O)(C(F)(F)F)C(F)(F)F)cc1 [Example 51, 1,1,1,3,3,3-hexafluoro-2-(2′-methyl-4′-((6-(pyridin-4-ylmethyl)-2,6-diazaspiro[3.3]heptan-2-yl)methyl)-[1,1′-biphenyl]-4-yl)propan-2-ol] | > 250
CS(=O)(=O)N1CC2(CN(Cc3ccc(-c4ccc(C(O)(C(F)(F)F)C(F)(F)F)cc4)c(C(F)(F)F)c3)C2)C1 [Example 46, 1,1,1,3,3,3-hexafluoro-2-(4′-((6-(methylsulfonyl)-2,6-diazaspiro[3.3]heptan-2-yl)methyl)-2′-(trifluoromethyl)-[1,1′-biphenyl]-4-yl)propan-2-ol] | 50 to 250
CC(C)c1cc(CN2CC3(C2)CN(S(C)(=O)=O)C3)c(F)cc1-c1ccc(C(O)(C(F)(F)F)C(F)(F)F)cc1F [Example 80, 2-(2,5′-difluoro-2′-isopropyl-4′-((6-(methylsulfonyl)-2,6-diazaspiro[3.3]heptan-2-yl)methyl)-[1,1′-biphenyl]-4-yl)-1,1,1,3,3,3-hexafluoropropan-2-ol] | < 50
Cc1cc(C(O)(C(F)(F)F)C(F)(F)F)ccc1-c1c(F)cc(CN2CC3(C2)CN(S(C)(=O)=O)C3)c(F)c1C(C)C [Example 84, 2-(3′,6′-difluoro-2′-isopropyl-2-methyl-4′-((6-(methylsulfonyl)-2,6-diazaspiro[3.3]heptan-2-yl)methyl)-[1,1′-biphenyl]-4-yl)-1,1,1,3,3,3-hexafluoropropan-2-ol] | < 50
CC(C)c1cc(CN2CC3(C2)CN(S(C)(=O)=O)C3)c(F)cc1-c1ccc(C(O)(C(F)(F)F)C(F)(F)F)cc1Cl [Example 81, 2-(2-chloro-5′-fluoro-2′-isopropyl-4′-((6-(methylsulfonyl)-2,6-diazaspiro[3.3]heptan-2-yl)methyl)-[1,1′-biphenyl]-4-yl)-1,1,1,3,3,3-hexafluoropropan-2-ol] | < 50
CCc1cc(CN2CCC(CS(C)(=O)=O)CC2)ccc1-c1ccc(C(O)(C(F)(F)F)C(F)(F)F)cc1 [Example 9, 2-(2′-ethyl-4′-((4-((methylsulfonyl)methyl)piperidin-1-yl)methyl)-[1,1′-biphenyl]-4-yl)-1,1,1,3,3,3-hexafluoropropan-2-ol] | 50 to 250
CCc1cc(CN2CCC3(C2)CN(S(C)(=O)=O)C3)ccc1-c1ccc(C(O)(C(F)(F)F)C(F)(F)F)cc1 [Example 30, 2-(2′-ethyl-4′-((2-(methylsulfonyl)-2,6-diazaspiro[3.4]octan-6-yl)methyl)-[1,1′-biphenyl]-4-yl)-1,1,1,3,3,3-hexafluoropropan-2-ol] | < 50
CCc1cc(CN2CCC3(CC2)CN(S(C)(=O)=O)C3)ccc1-c1ccc(C(O)(C(F)(F)F)C(F)(F)F)cc1 [Example 4, 2-(2′-ethyl-4′-((2-(methylsulfonyl)-2,7-diazaspiro[3.5]nonan-7-yl)methyl)-[1,1′-biphenyl]-4-yl)-1,1,1,3,3,3-hexafluoropropan-2-ol] | < 50
CCc1cc(CN2CC3(C2)CS(=O)(=O)C3)ccc1-c1ccc(C(O)(C(F)(F)F)C(F)(F)F)cc1 [Example 26, 6-((2-ethyl-4′-(1,1,1,3,3,3-hexafluoro-2-hydroxypropan-2-yl)-[1,1′-biphenyl]-4-yl)methyl)-2-thia-6-azaspiro[3.3]heptane 2,2-dioxide] | 50 to 250
CCc1cc(CN2CC3(C2)CN(C(=O)OC(C)(C)C)C3)ccc1-c1ccc(C(O)(C(F)(F)F)C(F)(F)F)cc1 [Example 1, tert-butyl 6-((2-ethyl-4′-(1,1,1,3,3,3-hexafluoro-2-hydroxypropan-2-yl)-[1,1′-biphenyl]-4-yl)methyl)-2,6-diazaspiro[3.3]heptane-2-carboxylate] | 50 to 250
CN(C)C(=O)c1cc(CN2CC3(C2)CN(S(C)(=O)=O)C3)ccc1-c1ccc(C(O)(C(F)(F)F)C(F)(F)F)cc1 [Example 55, 4′-(1,1,1,3,3,3-hexafluoro-2-hydroxypropan-2-yl)-N,N-dimethyl-4-((6-(methylsulfonyl)-2,6-diazaspiro[3.3]heptan-2-yl)methyl)-[1,1′-biphenyl]-2-carboxamide] | > 250
CCc1cc(CN2CCC3(CNC(=O)C3)C2)ccc1-c1ccc(C(O)(C(F)(F)F)C(F)(F)F)cc1 (stereo not shown) [Example 54, 7-((2-ethyl-4′-(1,1,1,3,3,3-hexafluoro-2-hydroxypropan-2-yl)-[1,1′-biphenyl]-4-yl)methyl)-2,7-diazaspiro[4.4]nonan-3-one] | 50 to 250
CS(=O)(=O)N1CC2(CN(Cc3cc(F)c(-c4ccc(C(O)(C(F)(F)F)C(F)(F)F)cc4)c(C4CC4)c3F)C2)C1 [Example 88, 2-(2′-cyclopropyl-3′,6′-difluoro-4′-((6-(methylsulfonyl)-2,6-diazaspiro[3.3]heptan-2-yl)methyl)-[1,1′-biphenyl]-4-yl)-1,1,1,3,3,3-hexafluoropropan-2-ol] | < 50
CCc1cc(CN2CC3(C2)CN(S(C)(=O)=O)C3)c(F)cc1-c1ccc(C(O)(C(F)(F)F)C(F)(F)F)cc1 [Example 36, 2-(2′-ethyl-5′-fluoro-4′-((6-(methylsulfonyl)-2,6-diazaspiro[3.3]heptan-2-yl)methyl)-[1,1′-biphenyl]-4-yl)-1,1,1,3,3,3-hexafluoropropan-2-ol] | < 50
CCc1cc(C(O)(C(F)(F)F)C(F)(F)F)ccc1-c1c(F)cc(CN2CC3(C2)CN(S(C)(=O)=O)C3)c(F)c1C(C)C [Example 85, 2-(2-ethyl-3′,6′-difluoro-2′-isopropyl-4′-((6-(methylsulfonyl)-2,6-diazaspiro[3.3]heptan-2-yl)methyl)-[1,1′-biphenyl]-4-yl)-1,1,1,3,3,3-hexafluoropropan-2-ol] | < 50

Reference: patent US11242350B2, “Spirocyclic ROR-gamma modulators” (Escalier Biosciences B.V., priority 2018, dated 2022)
